This is an account of results in patent US11952364B2, “TRK inhibitors useful as anticancer drugs” (TYLIGAND BIOSCIENCE (SHANGHAI) LIMITED, priority 2018, dated 2024).

SMILES strings stand for the structures.

The subject of one test is KM12 cells. Kind of test: Proliferation of KM12 cells (CellTiter-Glo). The class given is cell-based, human. The settings on record: Homo sapiens, KM12, 72 h, Table 1; 72 hours; read-out: KM-12, IC50. The text has this: KM12 is a human colon cancer cell line in which NTRK1 is highly expressed, and gene fusion occurs with TPM3 to form TPM3-NTRK1. • [Test method]: Promega's CellTiter-Glo® Luminescent Cell Viability Assay kit was used to evaluate the inhibitory activity of the compounds on the proliferation of KM12 cells. • [Instrument]: Spectramax M3 multifunctional microplate reader from Molecular Devices. • [Test materials]: KM12 cell line (ATCC, item number CRL-12496), 96-well transparent flat-bottomed black-walled cell culture plate (Corning, item number #3603), RPMI-1640 media (GE, cat #SH30027.01), Fetal Bovine Serum FBS (Thermo Fisher, cat #10099-141), CellTiter-Glo® Luminescent Cell Viability Assay Kit (Promega, cat #G7572), PBS (Solarbio, cat #P1020), Trypsin (Thermo Fisher, cat #25200072), DMSO (Sigma, cat #D2650). • [Experimental procedure]: When resuscitating KM12 cells, the freezing tube was quickly shaken in a 37° C. water bath to melt within 1 minute. The thawed cell suspension was mixed uniformly with RPMI1640 medium containing 10% FBS, centrifuged at 1000 rpm for 5 minutes, and the supernatant discarded. 5 mL of complete medium (RPMI1640 medium with 10% FBS) was taken to resuspend the cell pellets, charged into a cell culture flask with a bottom area of 25 cm^2, and incubated in a cell incubator at 37° C., 95% humidity and 5% CO2. Cells were allowed to passage when the cell confluence rate reached about 80%. For cell passage, the old medium was discarded, and the cells were washed twice with PBS, and 0.5 mL trypsin was added to digest the cells. Upon dispersing into single cells and exfoliating from the bottom of the cell culture flask, 4.5 mL of new complete medium was added to terminate the digestion. After pipetting the cell suspension evenly, 1/5 of the cell suspension was kept and added with 4 mL of new complete medium, and after pipetting evenly, the cell flask was placed in the cell incubator for further culturing. Cell plating was performed when the cell confluence rate reached about 80% again. For cell plating, 1/5 of the cell suspension was kept for further culturing as in the cell passage method, and the remaining 4/5 of the cell suspension was placed in a 15 mL centrifuge tube, detected for cell viability by Trypan blue exclusion method to ensure that cell viability was above 90%. A cell suspension with a density of 3.33×10^4 viable cells/mL was prepared with complete medium, and 90 μL of such cell suspension was added to a 96-well cell culture plate to obtain a cell density of 3000 viable cells/mL in the cell culture plate. A control group containing no cells, no compound and only complete medium (i.e. culture medium control) and a control group containing no compound but containing cells (i.e. cell control) were set. The cell plate was placed in a cell incubator overnight.
The 10 mM compound stock solution in DMSO was first serially diluted with DMSO at a dilution factor of 3.16 times, to obtain 9 concentrations, and the 10th concentration was set as DMSO control without compound. Then, PBS was used to dilute the DMSO solutions of compounds of different concentrations, at a dilution factor of 100 times, so that the DMSO concentration in the compound solution of each concentration was 1%. Finally, 10 μL of each of the above solutions was added to the corresponding cell culture plate, so that the initial compound concentration was 10 μM, with the remaining concentrations being successively diluted at a dilution factor of 3.16 times, and the DMSO content in the cell culture plate was 0.1%.
The cell plate was placed in a cell incubator and cultured for 72 hours. For endpoint detection, the CellTiter-Glo reagent was melted, and the cell plate was moved to room temperature to equilibrate for 30 minutes, added with 100 μL of CellTiter-Glo for each well, and shaken on an orbital shaker for 5 minutes to fully lyse the cells. […]
(ATP-based viability assays read luminescence as a measure of living cells.)
With `Cn1ncc2cc(Oc3ccc(NC(=O)c4ccc(C(F)(F)F)n(-c5ccc(F)cc5)c4=O)cc3F)c(-c3cn[nH]c3)cc21` [Example 1, N-(3-fluoro-4-(1-methyl-6-(1H-pyrazol-4-yl)-1H-indazol-5-yloxy)phenyl)-1-(4-fluorophenyl)-6-trifluoromethyl-2-oxo-1,2-dihydmpyridine-3-carboxamide monomethanesulfonate], the IC50 was 15.6 nM.

Take `Cn1ncc2cc(Oc3ccc(NC(=O)c4ccc(C5CC5)n(-c5ccc(F)cc5)c4=O)cc3F)c(-c3cn[nH]c3)cc21` [Example 2, N-(3-fluoro-4-(1-methyl-6-(1H-pyrazol-4-yl)-1H-indazol-5-yloxy)phenyl)-1-(4-fluorophenyl)-6-cyclopropyl-2-oxo-1,2-dihydmpyridine-3-carboxamide]: the IC50 came to 9.1 nM.

Regarding `CCn1ncc2cc(Oc3ccc(NC(=O)c4ccc(C)n(-c5ccc(F)cc5)c4=O)cc3F)c(-c3cn[nH]c3)cc21` [Example 3, N-(3-fluoro-4-(1-ethyl-6-(1H-pyrazol-4-yl)-1H-indazol-5-yloxy)phenyl)-1-(4-fluorophenyl)-6-methyl-2-oxo-1,2-dihydmpyridine-3-carboxamide], the IC50 was 16.7 nM. As for `Cc1ccc(C(=O)Nc2ccc(Oc3cc4cnn(C(C)C)c4cc3-c3cn[nH]c3)c(F)c2)c(=O)n1-c1ccc(F)cc1` [Example 4, N-(3-fluoro-4-(1-isopropyl-6-(1H-pyrazol-4-yl)-1H-indazol-5-yloxy)phenyl)-1-(4-fluorophenyl)-6-methyl-2-oxo-1,2-dihydmpyridine-3-carboxamide], the IC50 came out at 31 nM. For the compound `CCc1ccc(C(=O)Nc2ccc(Oc3cc4cnn(C)c4cc3-c3cn[nH]c3)c(F)c2)c(=O)n1-c1ccc(F)cc1` [Example 5, N-(3-fluoro-4-(1-methyl-6-(1H-pyrazol-4-yl)-1H-indazol-5-yloxy)phenyl)-1-(4-fluorophenyl)-6-ethyl-2-oxo-1,2-dihydropyridine-3-carboxamide], the IC50 turned out to be 5.1 nM. Regarding `CC(C)c1ccc(C(=O)Nc2ccc(Oc3cc4cnn(C)c4cc3-c3cn[nH]c3)c(F)c2)c(=O)n1-c1ccc(F)cc1` [Example 6, N-(3-fluoro-4-(1-methyl-6-(1H-pyrazol-4-yl)-1H-indazol-5-yloxy)phenyl)-1-(4-fluorophenyl)-6-isopropyl-2-oxo-1,2-dihydropyridine-3-carboxamide], the IC50 was determined as 6.3 nM.

The test is the same for the next values; noted with them: Homo sapiens, KM12, Table 1-1; separate test; read-out: KM-12, IC50.
Turning to `COc1ccc(C(=O)Nc2ccc(Oc3cc4cnn(C)c4cc3-c3cn[nH]c3)c(F)c2)c(=O)n1-c1ccc(F)cc1` [Example 12, N-(3-fluoro-4-(1-methyl-6-(1H-pyrazol-4-yl)-1H-indazol-5-yloxy)phenyl)-1-(4-fluorophenyl)-6-methoxy-2-oxo-1,2-dihydropyridine-3-carboxamide], the IC50 is 16 nM.

For `CCc1ccc(C(=O)Nc2ccc(Oc3cc4cnn(CC)c4cc3-c3cn[nH]c3)c(F)c2)c(=O)n1-c1ccc(F)cc1` [Example 18, N-(3-fluoro-4-(1-ethyl-6-(1H-pyrazol-4-yl)-1H-indazol-5-yloxy)phenyl)-1-(4-fluorophenyl)-6-ethyl-2-oxo-1,2-dihydropyridine-3-carboxamide], the IC50 came to 32 nM.

With `CCn1ncc2cc(Oc3ccc(NC(=O)c4ccc(C5CC5)n(-c5ccc(F)cc5)c4=O)cc3F)c(-c3cn[nH]c3)cc21` [Example 19, N-(3-fluoro-4-(1-ethyl-6-(1H-pyrazol-4-yl)-1H-indazol-5-yloxy)phenyl)-1-(4-fluorophenyl)-6-cyclopropyl-2-oxo-1,2-dihydropyridine-3-carboxamide], the IC50 was found to be 32 nM.

Take `CCn1ncc2cc(Oc3ccc(NC(=O)c4ccc(OC)n(-c5ccc(F)cc5)c4=O)cc3F)c(-c3cn[nH]c3)cc21` [Example 23, N-(3-fluoro-4-(1-ethyl-6-(1H-pyrazol-4-yl)-1H-indazol-5-yloxy)phenyl)-1-(4-fluorophenyl)-6-methoxy-2-oxo-1,2-dihydropyridine-3-carboxamide]: the IC50 is 32 nM.

Still in this test, the particulars now being: Homo sapiens, KM12, Table 1-2; separate test; read-out: KM-12, IC50.
Consider `CSc1ccc(C(=O)Nc2ccc(Oc3cc4cnn(C)c4cc3-c3cn[nH]c3)c(F)c2)c(=O)n1-c1ccc(F)cc1` [Example 11, N-(3-fluoro-4-(1-methyl-6-(1H-pyrazol-4-yl)-1H-indazol-5-yloxy)phenyl)-1-(4-fluorophenyl)-6-methylthio-2-oxo-1,2-dihydropyidine-3-carboxamide], for which the IC50 is 35 nM. For `CCOc1ccc(C(=O)Nc2ccc(Oc3cc4cnn(C)c4cc3-c3cn[nH]c3)c(F)c2)c(=O)n1-c1ccc(F)cc1` [Example 14, N-(3-fluoro-4-(1-methyl-6-(1H-pyrazol-4-yl)-1H-indazol-5-yloxy)phenyl)-1-(4-fluorophenyl)-6-ethoxy-2-oxo-12-dihydropyridine-3-carboxamide], the IC50 was 24 nM. The same measure, in the same setting: in the case of `Cn1ncc2cc(Oc3ccc(NC(=O)c4ccc(OC5CC5)n(-c5ccc(F)cc5)c4=O)cc3F)c(-c3cn[nH]c3)cc21` [Example 15, N-(3-fluoro-4-(1-methyl-6-(1H-pyrazol-4-yl)-1H-indazol-5-yloxy)phenyl)-1-(4-fluorophenyl)-6-cyclopropoxy-2-oxo-1,2-dihydropyridine-3-carboxamide] it was 17 nM. `CC(C)Oc1ccc(C(=O)Nc2ccc(Oc3cc4cnn(C)c4cc3-c3cn[nH]c3)c(F)c2)c(=O)n1-c1ccc(F)cc1` [Example 16, N-(3-fluoro-4-(1-methyl-6-(1H-pyrazol-4-yl)-1H-indazol-5-yloxy)phenyl)-1-(4-fluorophenyl)-6-isopropoxy-2-oxo-1,2-dihydropyridine-3-carboxamide]: the IC50 is 7 nM.

Staying with this test, now noted: Homo sapiens, KM12, Table 1-3; separate test; read-out: KM-12, IC50.
Take `CCn1ncc2cc(Oc3ccc(NC(=O)c4ccc(OC(C)C)n(-c5ccc(F)cc5)c4=O)cc3F)c(-c3cn[nH]c3)cc21` [Example 26, N-(3-fluoro-4-(1-ethyl-6-(1H-pyrazol-4-yl)-1H-indazol-5-yloxy)phenyl)-1-(4-fluorophenyl)-6-isopropoxy-2-oxo-1,2-dihydropyridine-3-carboxamide]: the IC50 is 18 nM.

The same test, now with this note: Homo sapiens, KM12, Table 9; read-out: KM12 cell proliferation inhibitory activity (IC50).
With `COc1ccc(C(=O)Nc2ccc(Oc3cc4cnn5c4c(c3-c3cn[nH]c3)CC5)c(F)c2)c(=O)n1-c1ccc(F)cc1` [Example 28, N-(4-((5-(1H-pyrazol-4-yl)-6,7-dihydropyrrolo[3,2,1-hi]-indazol-4-yl)oxy)-3-fluorophenyl)-1-(4-fluorophenyl)-6-methoxy-2-oxo-1,2-dihydropyidine-3-carboxamide], the IC50 worked out at 56 nM. The same measure, in the same setting: in the case of `Cc1ccc(C(=O)Nc2ccc(Oc3cc4cnn5c4c(c3-c3cn[nH]c3)CC5)c(F)c2)c(=O)n1-c1ccc(F)cc1` [Example 31, N-(4-((5-(1H-pyrazol-4-yl)-6,7-dihydropyrrolo[3,2,1-hi]-indazol-4-yl)oxy)-3-fluorophenyl)-1-(4-fluorophenyl)-6-methyl-2-oxo-1,2-dihydropyridine-3-carboxamide] it was 71 nM; in that of `CCOc1ccc(C(=O)Nc2ccc(Oc3cc4cnn5c4c(c3-c3cn[nH]c3)CC5)c(F)c2)c(=O)n1-c1ccc(F)cc1` [Example 32, N-(4-((5-(1H-pyrazol-4-yl)-6,7-dihydropyrrolo[3,2,1-hi]-indazol-4-yl)oxy)-3-fluorophenyl)-6-ethoxy-1-(4-fluorophenyl)-2-oxo-12-dihydropyridine-3-carboxamide], 67 nM.

Still in this test, the particulars now being: Table 1-3; separate test; read-out: KM-12, IC50.
As to `CCOc1ccc(C(=O)Nc2ccc(Oc3cc4cnn(CC)c4cc3-c3cn[nH]c3)c(F)c2)c(=O)n1-c1ccc(F)cc1` [Example 24, N-(3-fluoro-4-(1-ethyl-6-(1H-pyrazol-4-yl)-1H-indazol-5-yloxy)phenyl)-1-(4-fluorophenyl)-6-ethoxy-2-oxo-12-dihydropyridine-3-carboxamide], the IC50 was found to be 23 nM.
